From the NIST ThermoML archive (doi:10.1016/j.jct.2009.04.019)
Several values for one entry are separate records, joined by “and”; a condition that tells them apart may be missing. Equal values may be shown once. ± gives the expanded uncertainty stated by the source.

Details: Liquid, Transpiration method

C[C@H](O)CO [(+)-(S)-1,2-propanediol]
vapor or sublimation pressure (283.5 K): 0.00427 ± 0.00024 kPa
vapor or sublimation pressure (288.2 K): 0.00685 ± 0.00038 kPa
vapor or sublimation pressure (293.5 K): 0.01187 ± 0.00061 kPa and 0.00968 ± 0.00051 kPa
vapor or sublimation pressure (297.4 K): 0.01371 ± 0.0015 kPa
vapor or sublimation pressure (298.2 K): 0.01924 ± 0.0011 kPa
vapor or sublimation pressure (298.4 K): 0.01891 ± 0.0011 kPa
vapor or sublimation pressure (301.3 K): 0.025 ± 0.0013 kPa
vapor or sublimation pressure (301.4 K): 0.01968 ± 0.001 kPa
vapor or sublimation pressure (303.3 K): 0.02341 ± 0.0012 kPa
vapor or sublimation pressure (303.4 K): 0.02968 ± 0.0015 kPa
vapor or sublimation pressure (305.4 K): 0.02776 ± 0.0015 kPa
vapor or sublimation pressure (306.3 K): 0.03848 ± 0.0021 kPa
vapor or sublimation pressure (306.4 K): 0.0369 ± 0.0021 kPa
vapor or sublimation pressure (309.3 K): 0.04816 ± 0.0025 kPa
vapor or sublimation pressure (310.4 K): 0.05059 ± 0.0028 kPa and 0.04222 ± 0.0024 kPa and 0.04205 ± 0.0024 kPa
vapor or sublimation pressure (312.3 K): 0.06434 ± 0.0034 kPa and 0.06424 ± 0.0034 kPa
vapor or sublimation pressure (313.2 K): 0.06711 ± 0.0034 kPa
vapor or sublimation pressure (313.3 K): 0.06784 ± 0.0034 kPa
vapor or sublimation pressure (313.4 K): 0.05485 ± 0.0027 kPa
vapor or sublimation pressure (315.4 K): 0.06624 ± 0.004 kPa
vapor or sublimation pressure (316.2 K): 0.09048 ± 0.0049 kPa
vapor or sublimation pressure (316.3 K): 0.08971 ± 0.0049 kPa and 0.0869 ± 0.0048 kPa
vapor or sublimation pressure (318.3 K): 0.09934 ± 0.0052 kPa
vapor or sublimation pressure (318.4 K): 0.08522 ± 0.0044 kPa
vapor or sublimation pressure (319.3 K): 0.113 ± 0.0065 kPa
vapor or sublimation pressure (320.4 K): 0.1173 ± 0.006 kPa and 0.09922 ± 0.0051 kPa
vapor or sublimation pressure (320.5 K): 0.09891 ± 0.0051 kPa
vapor or sublimation pressure (321.3 K): 0.1276 ± 0.0077 kPa
vapor or sublimation pressure (322.3 K): 0.1391 ± 0.007 kPa
vapor or sublimation pressure (322.5 K): 0.1397 ± 0.007 kPa
vapor or sublimation pressure (323.4 K): 0.1284 ± 0.0064 kPa
vapor or sublimation pressure (323.5 K): 0.1563 ± 0.0078 kPa and 0.1318 ± 0.0066 kPa
vapor or sublimation pressure (324.5 K): 0.1349 ± 0.007 kPa
vapor or sublimation pressure (325.3 K): 0.1747 ± 0.01 kPa and 0.1406 ± 0.0089 kPa
vapor or sublimation pressure (325.4 K): 0.1734 ± 0.01 kPa
vapor or sublimation pressure (326.4 K): 0.1847 ± 0.0092 kPa
vapor or sublimation pressure (326.5 K): 0.1504 ± 0.0076 kPa
vapor or sublimation pressure (327.3 K): 0.1676 ± 0.011 kPa
vapor or sublimation pressure (327.4 K): 0.1988 ± 0.012 kPa
vapor or sublimation pressure (328.3 K): 0.2178 ± 0.011 kPa
vapor or sublimation pressure (328.4 K): 0.184 ± 0.01 kPa
vapor or sublimation pressure (328.5 K): 0.1824 ± 0.0099 kPa
vapor or sublimation pressure (328.6 K): 0.2155 ± 0.012 kPa
vapor or sublimation pressure (329.5 K): 0.2399 ± 0.013 kPa
vapor or sublimation pressure (331.3 K): 0.2757 ± 0.014 kPa
vapor or sublimation pressure (331.4 K): 0.2346 ± 0.012 kPa
vapor or sublimation pressure (333.3 K): 0.2616 ± 0.014 kPa
vapor or sublimation pressure (335.4 K): 0.303 ± 0.016 kPa
vapor or sublimation pressure (338.4 K): 0.3685 ± 0.019 kPa
